In US6737507B2, “Antiangiogenic peptides and compositions thereof” (Children's Medical Center Corporation, priority 1999, dated 2004):
Blank lines part the entries; values can stand above or below the molecule they belong to.

Columns and labels:
[1] = test system: neovascularization; experiment: CAM assay (chick chorioallantoic membrane), neovascularization in vivo
Description: Assays for the ability to inhibit angiogenesis in vivo include the chick chorioallantoic membrane assay and mouse, rat or rabbit corneal pocket assays. See, Polverini et al., 1991, Methods Enzymol. 198:440-450. In corneal pocket assays, a tumor of choice is implanted into the cornea of the test animal in the form of a corneal pocket. The potential angiogenesis inhibitor is applied to the corneal pocket and the corneal pocket is routinely examined for neovascularization. The purified protein inhibited bFGF-stimulated EC proliferation in the bFGF stimulated EC proliferation assay (Moses, et al., Science, 248:1408-1410 (1990)) (FIG. 1) and inhibited neovascularization in vivo in the CAM assay.

[2] = molecular target: T1, MMP-1 (Homo sapiens, UniProt P03956); experiment: MMP-1 activity assay; assay type: biochemical; conditions: FIG. 2
T1 sequence (P03956 100-469): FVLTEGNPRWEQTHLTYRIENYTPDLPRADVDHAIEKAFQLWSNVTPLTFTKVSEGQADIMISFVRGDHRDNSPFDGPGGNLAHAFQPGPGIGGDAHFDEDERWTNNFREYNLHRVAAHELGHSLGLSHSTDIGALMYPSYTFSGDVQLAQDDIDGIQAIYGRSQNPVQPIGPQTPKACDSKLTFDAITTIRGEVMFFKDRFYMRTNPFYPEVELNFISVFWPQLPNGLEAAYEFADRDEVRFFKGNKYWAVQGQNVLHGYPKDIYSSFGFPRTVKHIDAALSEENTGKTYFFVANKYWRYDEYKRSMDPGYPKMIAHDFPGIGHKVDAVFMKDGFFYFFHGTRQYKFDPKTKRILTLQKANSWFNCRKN
Description: FIG. 2: MMP-1 activity assay. The purified protein inhibited bFGF-stimulated EC proliferation in the bFGF stimulated EC proliferation assay (Moses, et al., Science, 248:1408-1410 (1990)) (FIG. 1) and inhibited neovascularization in vivo in the CAM assay.

[3] = test system: capillary endothelial cells (EC); experiment: bFGF-stimulated EC proliferation assay; assay type: cell-based; conditions: FIG. 1
Description: Inhibition of endothelial cell proliferation may be measured by calorimetric determination of cellular acid phosphatase activity or electronic cell counting. These methods provide a quick and sensitive screen for determining the number of endothelial cells in culture after treatment with the connective tissue growth factor protein, derivative, or analog of the invention, and an angiogenesis stimulating factor such as aFGF. The calorimetric determination of cellular acid phosphatase activity is described by Connolly et al., 1986, J. Anal. Biochem. J52:136-140. According to this method, capillary endothelial cells are treated with angiogenesis stimulating factors, such as aFGF, and a range of potential inhibitor concentrations. These samples are incubated to allow for growth, and then harvested, washed, lysed in a buffer containing a phosphatase substrate, and then incubated a second time. A basic solution is added to stop the reaction and color development is determined at […]. According to Connolly et al., a linear relationship is obtained between acid phosphatase activity and endothelial cell number up to 10,000 cells/sample. […] Percent inhibition is determined by comparing the cell number of samples exposed to stimulus with those exposed to both stimulus and inhibitor. […] Following incubation, the cells are harvested and the extent of thymidine incorporation is determined. […]

[4] = test system: microvascular cells; conditions: in vitro, amnion invasion assay; cited from earlier work
[5] = test system: endothelial cell; conditions: cited from earlier work
[6] = test system: capillary tube formation; conditions: in vitro; cited from earlier work
[7] = test system: MMP; experiment: standard radiometric enzyme assay for MMP inhibition; assay type: biochemical
Protocol: After 24 hours, positive colonies were harvested, pooled and re-plated into minimal plates. Since multiple copies of the construct are reported to confer resistance to high levels of GF18 we screened for “jackpot” clones by replica plating in increasing doses of GF18, as high as 4 mg/ml. After four days, approximately five colonies containing multiple copies of the gene were screened for expression levels of TIMP-3 in 5 ml cultures. The two clones showing the highest expression, T3-3 His+Mut^s and T3-A His+Mut^s, were then used to inoculate 500 ml cultures, as was one clone containing pPIC9K vector alone as a control for background expression. Both T3-3 and T3-A produced a prominent protein band at app. […] Highly purified TIMP-3 was obtained by subsequent chromatography on a Progel-TSK G30000SWK HPLC column (Supelco) followed by SDS-PAGE and silver staining. […] Both T3-3 and T3-A were inhibitory when tested in the standard radiometric enzyme assay for MMP inhibition (Moses, M. A., et al., Science 248:1408-1410, (1990) and Moses, M. A., et al., J. Cell Biol. 119:475-482, (1992)).

Molecule: TIMP-1: Tissue Inhibitor of MetalloProteinase 1
inhibition of migration of microvascular cells [4]: could inhibit | inhibition of FGF-stimulated endothelial cell proliferation ([5]; FGF-stimulated): not | effect on growth of EC proliferation ([5]; other studies): stimulate

Molecule: c1cnc2c(c1)ccc1cccnc12 [1,10-phenanthroline]
inhibition of capillary tube formation [6]: could inhibit

B2: T3-A: full length human TIMP-3 expressed by Pichia pastoris clone T3-A (protein)
chain: CTCSPSHPQDAFCNSDIVIRAKVVGKKLVKEGPFGTLVYTIKQMKMYRGFTKMPHVQYIHTEASESLCGLKLEVNKYQYLLTGRVYDGKMYTGLCNFVERWDQLTLSQRKGLNYRYHLGCNCKIKSCYYLPCFVTSKNECLWTDMLSNFGYPGYQSKHYACIRQKGGYCSWYRGWAPPDKSIINATDP
MMP inhibition [7]: inhibitory

The next lines start with results.

inhibition of MMP-1 activity [2]: did not inhibit
Molecule: CKITRCPMIPCYISSPDECLWMDWVTEKNINGHQAKFFACIKRSDGSCAWYRGA APPKQEFLDIEDP [purified protein]
inhibition of neovascularization in vivo [1]: inhibited | inhibition of bFGF-stimulated EC proliferation [3]: inhibited

MMP inhibition [7]: inhibitory
B1: T3-3: full length human TIMP-3 expressed by Pichia pastoris clone T3-3 (protein)
chain: B2 chain
